The values below come from patent US8247407B2, priority 2007, dated 2012).

The subject of data set [1] is white rats with experimental diabetes (alloxan diabetes). Briefly: Anti-diabetic, hypolipidemic and hypocholesteremic activity, alloxan diabetes model in rats (Example 2). The format is in vivo, rat. To be noted: compounds 50 mg/kg, metmorphin 200 mg/kg daily. The protocol: (§1) The comparison of anti-diabetic action of compounds was carried out using a standard model of alloxan diabetes and metmorphin as a comparative drug. The alloxan diabetes was induced by a single subcutaneous injection of water solution of alloxan hydrate (ICN Biomedicals, USA) at a dose of 150 mg/kg to rats weighting 180-200 g that have fasted for 24 hours. The following animal groups were studied: intact rats, diabetic non-treated rats, diabetic rats receiving Polfa-Kutno Ltd.″ metmorphin daily (for 23 days, 200 mg/kg); diabetic rats receiving daily (for 20 days) the abovementioned pharmaceutical compositions containing, as an active components, the compounds described in this invention: MC-200-MC-225. The compounds were administered intragastrically once a day in starch gel at a dose of 50 mg/kg rat weight.
(§2) The experimental drug doses were selected assuming the expected therapeutic doses for man and previously determined toxic doses (LD50 of studied compounds was approximately 500-1,000 mg/kg). The metmorphin dose for rats was extrapolated from the therapeutic dose for man. Drug administration was started on the third day after alloxan injection when blood glucose level increased approximately 3-fold as compared to control value. Each group consisted of 20 animals of both genders.
Pharmaceutical compositions for determination of anti-diabetic action had the same composition as that given in Example I.
The comparison of the anti-diabetic action of compounds was carried out using a standard model of alloxan diabetes, as described in Example I, and metmorphin as a comparative drug.
In the course of experiment, the following parameters were recorded: animal general condition, water consumption, body mass, levels of glucose, total lipids, tri-glycerides, serum blood cholesterol, and glycosylated hemoglobin, using the generally accepted techniques (Laboratory methods of studies in clinical practice, V. V. Menshikov, Ed., Moscow, “Medicine”, 1987).

For data set [2], the system named is rats with alloxan diabetes. Briefly: Hypoglycemic activity, alloxan diabetes model in rats (Example 1). The format is in vivo, rat. As for the experimental part: The pharmaceutical compositions for determination of anti-diabetic action had the following composition: active compound—1 g, potato starch—1 g, water—100 ml.
as §1, §2

In data set [3] the test system is pancreatic Langerhans islets of rats with alloxan diabetes. Briefly: Histological examination of the pancreas of alloxan-diabetic rats (Example 3). The format is in vivo, rat. The following applies: in 20 days after treatment; for Pancreatic Langerhans islet structure, aldehyde fuchsine staining: magnification 20×7; for Pancreatic Langerhans islet structure, haematoxylin-eosin staining: magnification 40×7. The protocol:
Histological examination of pancreatic structure was carried out using the haematoxylin-eosin and aldehyde fuchsine staining of pancreatic sections using standard techniques.

For a further data set, the system named is patients. To be noted: cited from earlier work.
Setting [4] is: diabetic rats' blood, in 10 days, compounds 50 mg/kg intragastrically once a day in starch gel, metmorphin 200 mg/kg daily.
Setting [5] is: diabetic rats' blood, in 20 days, compounds 50 mg/kg intragastrically once a day in starch gel, metmorphin 200 mg/kg daily.

“And” between values parts separate entries of the source, which are not always exact repeats. Equal entries are not always repeated. Structures can show the parent of a compound that is named as a salt.

Take `CCOC(=O)c1c(CSc2ccc3ccccc3c2)n(C)c2cc(Br)c(O)c(CN(C)C)c12` [MC-217, 1-methyl-2-β-naphthylthiomethyl-3-carbethoxy-4-dimethylaminomethyl-5-hydroxy-6-bromoindole hydrochloride]: in data set [1] (in 10 days), the Body mass was 190 ± 10 g, the Cholesterol is 2.4 ± 0.2 mmol/L, the Daily water consumption turned out to be 25 ± 5 mL and the Glucose came out at 5.2 ± 0.2 mmol/L. Also, in data set [1] (in 10 days), the Glycosylated hemoglobin is 5.2 ± 0.2 mol %, the “Percent of survived rats” value amounted to 100%, the Total lipids turned out to be 10.4 ± 0.5 g/L and the Tri-glycerides was determined as 2.3 ± 0.2 mmol/L. The same compound gave a β-lipoproteins in data set [1] (in 10 days) of 2.1 ± 0.2 g/L. Besides, in data set [1] (in 20 days), the Body mass came out at 185 ± 10 g, the Cholesterol came out at 1.4 ± 0.2 mmol/L, the Daily water consumption worked out at 22 ± 5 mL and the Glucose is 4.8 ± 0.1 mmol/L. In data set [1] (in 20 days), the Glycosylated hemoglobin is reported as 4.9 ± 0.3 mol %, the “Percent of survived rats” value turned out to be 100%, the Total lipids was determined as 10.2 ± 0.3 g/L and the Tri-glycerides came to 1.5 ± 0.2 mmol/L. In data set [1] (in 20 days), the β-lipoproteins worked out at 2.1 ± 0.2 g/L. Besides, in data set [2] (rat, in vivo), the “Glucose content, mmol/l, in 10 days” value came to 5.2 ± 0.2 mmol/L and the “Glucose content, mmol/l, in 20 days” value turned out to be 4.8 ± 0.3 mmol/L. Also, in data set [3], the “Pancreatic Langerhans islet structure, aldehyde fuchsine staining” value is “Restoration of pancreatic Langerhans islet” and the “Pancreatic Langerhans islet structure, haematoxylin-eosin staining” value is listed as “Restoration of pancreatic Langerhans islet”.

In data set [1] (in 10 days), `CCOC(=O)c1c(CSc2ccccc2)n(C)c2cc(Br)c(O)c(CN(C)C)c12` [MC-200, 1-methyl-2-phenylthiomethyl-3-carbethoxy-4-dimethylaminomethyl-5-hydroxy-6-bromoindole hydrochloride] had a Body mass of 180 ± 5 g, a Cholesterol of 2.7 ± 0.4 mmol/L, a Daily water consumption of 20 ± 3 mL and a Glucose of 5.6 ± 0.2 mmol/L. Besides, in data set [1] (in 10 days), the Glycosylated hemoglobin turned out to be 6.2 ± 0.3 mol %, the “Percent of survived rats” value came to 100%, the Total lipids came to 10.2 ± 0.5 g/L and the Tri-glycerides is 2.5 ± 0.2 mmol/L. The same compound had a β-lipoproteins in data set [1] (in 10 days) of 2.0 ± 0.2 g/L. Besides, in data set [1] (in 20 days), the Body mass is 182 ± 10 g, the Cholesterol amounted to 1.5 ± 0.2 mmol/L, the Daily water consumption was found to be 24 ± 6 mL and the Glucose is 5.4 ± 0.3 mmol/L. In data set [1] (in 20 days), the Glycosylated hemoglobin came out at 6.5 ± 05 mol %, the “Percent of survived rats” value was determined as 75%, the Total lipids worked out at 10.6 ± 1.0 g/L and the Tri-glycerides is 1.5 ± 0.2 mmol/L. Moreover, the β-lipoproteins in data set [1] (in 20 days) came out at 2.1 ± 0.3 g/L. In addition, in data set [2] (setting [4]), the “Glucose content, mmol/l, in 10 days” value was found to be 5.6 ± 0.2 mmol/L. Moreover, the “Glucose content, mmol/l, in 20 days” value in data set [2] (setting [5]) was 5.4 ± 0.3 mmol/L. For the same compound, the “Pancreatic Langerhans islet structure, haematoxylin-eosin staining” value in data set [3] is “Restoration of pancreatic Langerhans islet”.

`CN(CCOc1ccc(CC2SC(=O)NC2=O)cc1)c1ccccn1` (stereo not drawn) [Avandia]: the “Fatality rate after infarction, higher than untreated group” value in the data set with patients (Avandia group as compared to the untreated group) is recorded as 64%. Also, the “Probability of myocardial infarction, higher than untreated group” value in the data set with patients (patients who took Avandia as compared to the untreated group) is 43%.

Regarding `CN(C)C(=N)N=C(N)N` [Metmorphin, reference compound], in data set [1] (in 10 days), the Body mass came out at 185 ± 5 g; the Cholesterol was 2.6 ± 0.3 mmol/L and 2.4 ± 0.3 mmol/L; the Daily water consumption is 25 ± 3 mL; the Glucose is 6.6 ± 0.3 mmol/L and 6.4 ± 0.3 mmol/L. In addition, in data set [1] (in 10 days), the Glycosylated hemoglobin is 5.1 ± 0.1 mol % and 5.0 ± 0.1 mol %; the “Percent of survived rats” value is 100%; the Total lipids was 10.6 ± 0.6 g/L and 10.5 ± 0.5 g/L; the Tri-glycerides worked out at 2.6 ± 0.1 mmol/L. Moreover, in data set [1] (in 10 days), the β-lipoproteins was 2.2 ± 0.3 g/L and 2.2 ± 0.4 g/L. In addition, in data set [1] (in 20 days), the Body mass is 180 ± 5 g; the Cholesterol is 1.7 ± 0.3 mmol/L and 1.6 ± 0.3 mmol/L; the Daily water consumption is 20 ± 3 mL and 19 ± 3 mL; the Glucose was 6.4 ± 0.2 mmol/L and 6.3 ± 0.2 mmol/L. In data set [1] (in 20 days), the Glycosylated hemoglobin was 6.2 ± 0.2 mol % and 6.1 ± 0.2 mol %; the “Percent of survived rats” value is on record as 80%; the Total lipids was 11.6 ± 1.2 g/L and 11.5 ± 1.0 g/L; the Tri-glycerides is 1.6 ± 0.1 mmol/L and 1.6 ± 0.2 mmol/L. For the same compound, in data set [1] (in 20 days), the β-lipoproteins is 2.2 ± 0.3 g/L and 2.2 ± 0.4 g/L. For the same compound, the “Glucose content, mmol/l, in 10 days” value in data set [2] (setting [4]) turned out to be 6.6 ± 0.3 mmol/L. In data set [2] (setting [5]), the “Glucose content, mmol/l, in 20 days” value stood at 6.4 ± 0.3 mmol/L. Besides, in data set [3], the “Pancreatic Langerhans islet structure, aldehyde fuchsine staining” value is given as “Restoration of pancreatic Langerhans islet” and the “Pancreatic Langerhans islet structure, haematoxylin-eosin staining” value is “Restoration of pancreatic Langerhans islet”.

In data set [1] (in 10 days), `CCOC(=O)c1c(CN2CCCC2)n(C)c2cc(-c3cccnc3)c3c(c12)CN(C)CO3` [MC-213, 9-carbethoxy-2,7-dimethyl-5-pyridine-3-yl-8-[(pyrrolidine-1-yl)methyl]-1,2,3,7-tetrahydro[1,3]oxazino [5,6-e] indole trihydrochloride] came in with a Body mass of 185 ± 5 g, a Cholesterol of 2.7 ± 0.5 mmol/L, a Daily water consumption of 26 ± 5 mL and a Glucose of 5.8 ± 0.3 mmol/L. Also, in data set [1] (in 10 days), the Glycosylated hemoglobin is given as 6.4 ± 0.3 mol %, the “Percent of survived rats” value worked out at 90%, the Total lipids was found to be 10.5 ± 0.5 g/L and the Tri-glycerides worked out at 2.5 ± 0.3 mmol/L. Further, the β-lipoproteins in data set [1] (in 10 days) was determined as 2.2 ± 0.2 g/L. In data set [1] (in 20 days), the Body mass is listed as 183 ± 10 g, the Cholesterol came to 1.5 ± 0.2 mmol/L, the Daily water consumption was 25 ± 6 mL and the Glucose came out at 5.5 ± 0.3 mmol/L. Besides, in data set [1] (in 20 days), the Glycosylated hemoglobin came to 6.2 ± 0.5 mol %, the “Percent of survived rats” value came out at 75%, the Total lipids came out at 10.4 ± 1.0 g/L and the Tri-glycerides stood at 1.7 ± 0.2 mmol/L. In addition, the β-lipoproteins in data set [1] (in 20 days) worked out at 2.1 ± 0.2 g/L. For the same compound, in data set [2] (rat, in vivo), the “Glucose content, mmol/l, in 10 days” value was found to be 5.8 ± 0.4 mmol/L and the “Glucose content, mmol/l, in 20 days” value was found to be 5.5 ± 0.3 mmol/L.
